The text below walks through data of article PMC11127949, “Selective targeting of IRAK1 attenuates low molecular weight hyaluronic acid-induced stemness and non-canonical STAT3 activation in epithelial ovarian cancer” (Cell Death & Disease, 2024).

The test addresses T1, IRAK1 (Homo sapiens, UniProt P51617).
T1 construct: active recombinant IRAK1 enzyme
The test is described as follows: SPR ([…] model); supported by KINOMEscan active-site competition binding and CETSA in A2780 cells.

T1 sequence (P51617 whole entry): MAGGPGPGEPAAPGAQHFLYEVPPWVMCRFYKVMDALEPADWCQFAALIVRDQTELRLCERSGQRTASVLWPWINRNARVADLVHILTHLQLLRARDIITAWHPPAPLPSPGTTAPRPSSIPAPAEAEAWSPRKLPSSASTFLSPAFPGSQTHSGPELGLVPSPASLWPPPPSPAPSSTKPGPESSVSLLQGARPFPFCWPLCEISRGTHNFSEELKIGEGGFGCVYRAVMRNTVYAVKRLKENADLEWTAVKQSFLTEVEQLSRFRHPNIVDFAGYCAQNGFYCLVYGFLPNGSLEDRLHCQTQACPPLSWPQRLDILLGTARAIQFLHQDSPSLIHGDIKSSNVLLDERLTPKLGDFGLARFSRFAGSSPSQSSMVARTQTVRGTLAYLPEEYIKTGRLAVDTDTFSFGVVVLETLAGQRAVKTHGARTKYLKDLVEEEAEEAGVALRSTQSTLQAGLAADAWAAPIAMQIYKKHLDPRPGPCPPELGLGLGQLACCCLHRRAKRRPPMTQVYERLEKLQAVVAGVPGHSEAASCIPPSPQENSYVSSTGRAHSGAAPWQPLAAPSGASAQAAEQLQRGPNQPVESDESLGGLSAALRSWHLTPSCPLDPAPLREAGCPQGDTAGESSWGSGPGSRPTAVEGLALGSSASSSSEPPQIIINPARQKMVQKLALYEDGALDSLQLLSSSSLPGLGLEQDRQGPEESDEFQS

As a reminder, the Kd is the constant that tells how readily two partners part at equilibrium. Read a high Kd as a looser complex. The molecule `O=C(NO)c1ccc2[nH]c(=O)c(CCCc3ccccc3)nc2c1` [TCS2210] showed a Kd of 1760 nM.
